Converted amounts (≈) assume the structure as drawn.

One experiment concerns Mannheimia haemolytica MH 6357 (M7/2, reference strain, cattle infection strain). Nature of the experiment: MIC, broth-microdilution (CLSI VET01-A4), strain MH 6357. Type of experiment: cell-based. To be noted: Mannheimia haemolytica strain MH 6357, broth-microdilution; unit assumed. The method in brief: (§1)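 Growth inhibition is scored visually on a doubling dilution series. The reported MIC corresponds to the lowest concentration free of turbidity, with results assessed under CLSI VET01-S3.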
A general note: In broth dilution the organism is exposed to a series of concentrations in liquid medium.
Compound `COc1ccc(CNCc2ccc(C#Cc3ccc(C(=O)N[C@H](C(=O)NO)C(C)(C)SC)cc3)s2)cc1` [Compound 305] yielded an MIC MH 6357 of 0.8 µg/mL (≈ 1.49 µM).
The same measure, in the same setting: in the case of `CON=C(C)[C@H](NC(=O)c1ccc(C#Cc2ccc(CNCc3nccs3)cc2)cc1)C(=O)NO` [Compound 395] it was 0.4 µg/mL (≈ 0.814 µM); in that of `COc1ccc(CNCc2ccc(C#Cc3ccc(C(=O)N[C@H](C(=O)NO)C(C)(C)S(C)(=O)=O)cc3)s2)cc1` [Compound 316], not above 0.1 µg/mL; in that of `Cc1ccc(CNCc2ccc(C#Cc3ccc(C(=O)NC(C(=O)NO)C(C)(C)[N+](=O)[O-])cc3)cc2)cc1` (stereo not shown) [Compound 283], 3.1 µg/mL (≈ 6.02 µM).

For a further experiment, the system named is Mannheimia haemolytica MH 6374 (ATCC 33396, reference strain). The experiment in a line: MIC, broth-microdilution (CLSI VET01-A4), strain MH 6374. Type of experiment: cell-based. To be noted: Mannheimia haemolytica strain MH 6374, broth-microdilution; unit assumed. A digest of the protocol:
as §1
`COc1ccc(CNCc2ccc(C#Cc3ccc(C(=O)N[C@H](C(=O)NO)C(C)(C)SC)cc3)s2)cc1` [Compound 305] had an MIC MH 6374 of 0.8 µg/mL (≈ 1.49 µM).
Still for that read-out and setting: in the case of `CON=C(C)[C@H](NC(=O)c1ccc(C#Cc2ccc(CNCc3nccs3)cc2)cc1)C(=O)NO` [Compound 395] it was 0.8 µg/mL (≈ 1.63 µM); in that of `COc1ccc(CNCc2ccc(C#Cc3ccc(C(=O)N[C@H](C(=O)NO)C(C)(C)S(C)(=O)=O)cc3)s2)cc1` [Compound 316], 0.2 µg/mL (≈ 0.351 µM); in that of `Cc1ccc(CNCc2ccc(C#Cc3ccc(C(=O)NC(C(=O)NO)C(C)(C)[N+](=O)[O-])cc3)cc2)cc1` (stereo not shown) [Compound 283], 3.1 µg/mL (≈ 6.02 µM).

The subject of a further experiment is Mannheimia haemolytica MH 10720 (154, BRD field isolate). Nature of the experiment: MIC, broth-microdilution (CLSI VET01-A4), strain MH 10720. The experiment is classed as cell-based. To be noted: Mannheimia haemolytica strain MH 10720, broth-microdilution; unit assumed. The method in brief:
as §1
For the compound `COc1ccc(CNCc2ccc(C#Cc3ccc(C(=O)N[C@H](C(=O)NO)C(C)(C)SC)cc3)s2)cc1` [Compound 305], the MIC MH 10720 was found to be 0.2 µg/mL (≈ 0.372 µM).
As to `CON=C(C)[C@H](NC(=O)c1ccc(C#Cc2ccc(CNCc3nccs3)cc2)cc1)C(=O)NO` [Compound 395], the MIC MH 10720 came to 0.4 µg/mL (≈ 0.814 µM).
Take `COc1ccc(CNCc2ccc(C#Cc3ccc(C(=O)N[C@H](C(=O)NO)C(C)(C)S(C)(=O)=O)cc3)s2)cc1` [Compound 316]: the MIC MH 10720 is not above 0.1 µg/mL.
Still for that read-out and setting: in the case of `Cc1ccc(CNCc2ccc(C#Cc3ccc(C(=O)NC(C(=O)NO)C(C)(C)[N+](=O)[O-])cc3)cc2)cc1` (stereo not shown) [Compound 283] it was 0.2 µg/mL (≈ 0.389 µM).

For a further experiment, the system named is Mannheimia haemolytica MH 12587 (1071, BRD field isolate, macrolide-resistance: erm+, E+). The experiment in a line: MIC, broth-microdilution (CLSI VET01-A4), strain MH 12587. Type of experiment: cell-based. The following applies: Mannheimia haemolytica strain MH 12587, broth-microdilution; unit assumed. The method in brief:
as §1
Regarding `COc1ccc(CNCc2ccc(C#Cc3ccc(C(=O)N[C@H](C(=O)NO)C(C)(C)SC)cc3)s2)cc1` [Compound 305], the MIC MH 12587 worked out at 3.1 µg/mL (≈ 5.77 µM).
`CON=C(C)[C@H](NC(=O)c1ccc(C#Cc2ccc(CNCc3nccs3)cc2)cc1)C(=O)NO` [Compound 395] yielded an MIC MH 12587 of 0.2 µg/mL (≈ 0.407 µM).
On the same count and under the same terms, in the case of `COc1ccc(CNCc2ccc(C#Cc3ccc(C(=O)N[C@H](C(=O)NO)C(C)(C)S(C)(=O)=O)cc3)s2)cc1` [Compound 316] it was 0.8 µg/mL (≈ 1.4 µM); in that of `Cc1ccc(CNCc2ccc(C#Cc3ccc(C(=O)NC(C(=O)NO)C(C)(C)[N+](=O)[O-])cc3)cc2)cc1` (stereo not shown) [Compound 283], 6.3 µg/mL (≈ 12.2 µM).

In a further experiment the test system is Mannheimia haemolytica MH 13065 (XB0446-6003.9, BRD field isolate). Nature of the experiment: MIC, broth-microdilution (CLSI VET01-A4), strain MH 13065. Type of experiment: cell-based. The following applies: Mannheimia haemolytica strain MH 13065, broth-microdilution; unit assumed. The method in brief:
as §1
As to `COc1ccc(CNCc2ccc(C#Cc3ccc(C(=O)N[C@H](C(=O)NO)C(C)(C)SC)cc3)s2)cc1` [Compound 305], the MIC MH 13065 is 0.8 µg/mL (≈ 1.49 µM).
For the compound `CON=C(C)[C@H](NC(=O)c1ccc(C#Cc2ccc(CNCc3nccs3)cc2)cc1)C(=O)NO` [Compound 395], the MIC MH 13065 is 0.8 µg/mL (≈ 1.63 µM).
On the same count and under the same terms, in the case of `COc1ccc(CNCc2ccc(C#Cc3ccc(C(=O)N[C@H](C(=O)NO)C(C)(C)S(C)(=O)=O)cc3)s2)cc1` [Compound 316] it was 0.2 µg/mL (≈ 0.351 µM); in that of `Cc1ccc(CNCc2ccc(C#Cc3ccc(C(=O)NC(C(=O)NO)C(C)(C)[N+](=O)[O-])cc3)cc2)cc1` (stereo not shown) [Compound 283], 1.6 µg/mL (≈ 3.11 µM).

A further experiment deals with Mannheimia haemolytica MH 13093 (XB0472-6014.1, BRD field isolate). Nature of the experiment: MIC, broth-microdilution (CLSI VET01-A4), strain MH 13093. Type of experiment: cell-based. To be noted: Mannheimia haemolytica strain MH 13093, broth-microdilution; unit assumed. The method in brief:
as §1
In turn, `COc1ccc(CNCc2ccc(C#Cc3ccc(C(=O)N[C@H](C(=O)NO)C(C)(C)SC)cc3)s2)cc1` [Compound 305] had an MIC MH 13093 of 1.6 µg/mL (≈ 2.98 µM).
In turn, `CON=C(C)[C@H](NC(=O)c1ccc(C#Cc2ccc(CNCc3nccs3)cc2)cc1)C(=O)NO` [Compound 395] gave an MIC MH 13093 of 0.8 µg/mL (≈ 1.63 µM).
On the same count and under the same terms, in the case of `COc1ccc(CNCc2ccc(C#Cc3ccc(C(=O)N[C@H](C(=O)NO)C(C)(C)S(C)(=O)=O)cc3)s2)cc1` [Compound 316] it was 0.4 µg/mL (≈ 0.702 µM); in that of `Cc1ccc(CNCc2ccc(C#Cc3ccc(C(=O)NC(C(=O)NO)C(C)(C)[N+](=O)[O-])cc3)cc2)cc1` (stereo not shown) [Compound 283], 3.1 µg/mL (≈ 6.02 µM).

The test system of another experiment is Pasteurella multocida PM 6267 (P 2225 (L386), reference strain, mouse infection strain). The experiment in a line: MIC, broth-microdilution (CLSI VET01-A4), strain PM 6267. Type of experiment: cell-based. To be noted: Pasteurella multocida strain PM 6267, broth-microdilution; unit assumed. A digest of the protocol: as §1
`COc1ccc(CNCc2ccc(C#Cc3ccc(C(=O)N[C@H](C(=O)NO)C(C)(C)SC)cc3)s2)cc1` [Compound 305] had an MIC PM 6267 of 0.8 µg/mL (≈ 1.49 µM).
Still for that read-out and setting: in the case of `CON=C(C)[C@H](NC(=O)c1ccc(C#Cc2ccc(CNCc3nccs3)cc2)cc1)C(=O)NO` [Compound 395] it was 3.1 µg/mL (≈ 6.31 µM); in that of `COc1ccc(CNCc2ccc(C#Cc3ccc(C(=O)N[C@H](C(=O)NO)C(C)(C)S(C)(=O)=O)cc3)s2)cc1` [Compound 316], 0.2 µg/mL (≈ 0.351 µM); in that of `Cc1ccc(CNCc2ccc(C#Cc3ccc(C(=O)NC(C(=O)NO)C(C)(C)[N+](=O)[O-])cc3)cc2)cc1` (stereo not shown) [Compound 283], 3.1 µg/mL (≈ 6.02 µM).

The test system of the next experiment is Pasteurella multocida PM 6391 (ATCC 43137, reference strain). The experiment in a line: MIC, broth-microdilution (CLSI VET01-A4), strain PM 6391. Type of experiment: cell-based. The following applies: Pasteurella multocida strain PM 6391, broth-microdilution; unit assumed. A digest of the protocol: as §1
For the compound `COc1ccc(CNCc2ccc(C#Cc3ccc(C(=O)N[C@H](C(=O)NO)C(C)(C)SC)cc3)s2)cc1` [Compound 305], the MIC PM 6391 is 0.4 µg/mL (≈ 0.744 µM).
`CON=C(C)[C@H](NC(=O)c1ccc(C#Cc2ccc(CNCc3nccs3)cc2)cc1)C(=O)NO` [Compound 395] yielded an MIC PM 6391 not above 0.1 µg/mL.
Same read-out and setting: in the case of `COc1ccc(CNCc2ccc(C#Cc3ccc(C(=O)N[C@H](C(=O)NO)C(C)(C)S(C)(=O)=O)cc3)s2)cc1` [Compound 316] it was not above 0.1 µg/mL.
Still for that read-out and setting: in the case of `Cc1ccc(CNCc2ccc(C#Cc3ccc(C(=O)NC(C(=O)NO)C(C)(C)[N+](=O)[O-])cc3)cc2)cc1` (stereo not shown) [Compound 283] it was 1.6 µg/mL (≈ 3.11 µM).

In the next experiment the test system is Pasteurella multocida PM 10775 (080130003051, BRD field isolate). The experiment in a line: MIC, broth-microdilution (CLSI VET01-A4), strain PM 10775. To be noted: Pasteurella multocida strain PM 10775, broth-microdilution; unit assumed. Type of experiment: cell-based. A digest of the protocol:
as §1
Consider `COc1ccc(CNCc2ccc(C#Cc3ccc(C(=O)N[C@H](C(=O)NO)C(C)(C)SC)cc3)s2)cc1` [Compound 305], for which the MIC PM 10775 is not above 0.1 µg/mL.
Same read-out and setting: in the case of `CON=C(C)[C@H](NC(=O)c1ccc(C#Cc2ccc(CNCc3nccs3)cc2)cc1)C(=O)NO` [Compound 395] it was 0.2 µg/mL (≈ 0.407 µM).
Compound `COc1ccc(CNCc2ccc(C#Cc3ccc(C(=O)N[C@H](C(=O)NO)C(C)(C)S(C)(=O)=O)cc3)s2)cc1` [Compound 316] registered an MIC PM 10775 not above 0.1 µg/mL.
In turn, `Cc1ccc(CNCc2ccc(C#Cc3ccc(C(=O)NC(C(=O)NO)C(C)(C)[N+](=O)[O-])cc3)cc2)cc1` (stereo not shown) [Compound 283] came in with an MIC PM 10775 of 0.2 µg/mL (≈ 0.389 µM).

For another experiment, the system named is Pasteurella multocida PM 12080 (IV102277-0093, BRD field isolate). Nature of the experiment: MIC, broth-microdilution (CLSI VET01-A4), strain PM 12080. Type of experiment: cell-based. The following applies: Pasteurella multocida strain PM 12080, broth-microdilution; unit assumed. The method in brief: as §1
For the compound `COc1ccc(CNCc2ccc(C#Cc3ccc(C(=O)N[C@H](C(=O)NO)C(C)(C)SC)cc3)s2)cc1` [Compound 305], the MIC PM 12080 was found to be 0.4 µg/mL (≈ 0.744 µM).
On the same count and under the same terms, in the case of `CON=C(C)[C@H](NC(=O)c1ccc(C#Cc2ccc(CNCc3nccs3)cc2)cc1)C(=O)NO` [Compound 395] it was 0.2 µg/mL (≈ 0.407 µM); in that of `COc1ccc(CNCc2ccc(C#Cc3ccc(C(=O)N[C@H](C(=O)NO)C(C)(C)S(C)(=O)=O)cc3)s2)cc1` [Compound 316], not above 0.1 µg/mL.
Same read-out and setting: in the case of `Cc1ccc(CNCc2ccc(C#Cc3ccc(C(=O)NC(C(=O)NO)C(C)(C)[N+](=O)[O-])cc3)cc2)cc1` (stereo not shown) [Compound 283] it was 0.8 µg/mL (≈ 1.55 µM).

The record behind these values is US11034650B2, “Compounds useful for treating a Mannheimia haemolytica or Histophilus somni infection” (Intervet Inc., priority 2016, dated 2021).
